Values of other authors, collected in patent publication US11466019B2, “Triazolo[4,5-d] pyramidine derivatives and their use as purine receptor antagonists” (Vernalis (R&D) Limited, priority 2008, dated 2022).

Key:
cataleptic responses = conditions: cited from earlier work
Parkinsonian patients = conditions: cited from earlier work

Structure (SMILES): CCCn1c(=O)c2c(nc(/C=C/c3ccc(OC)c(OC)c3)n2C)n(CCC)c1=O [KF 17837, E-8-(3,4dimethoxystyryl)-1,3-dipropyl-7-methylxanthine]
- anticataleptic effects of a subthreshold dose of L-DOPA plus benserazide (cataleptic responses; combination): potentiated the anticataleptic effects
- catalepsy induced by haloperidol and reserpine (cataleptic responses; in vivo): reduced the catalepsy
- cataleptic responses induced by intracerebroventricular administration of CGS 21680 (cataleptic responses; oral administration): significantly ameliorated

Structure (SMILES): Cn1c(=O)c2[nH]cnc2n(C)c1=O [theophylline, 1,3-dimethylxanthine]
- mean objective disability scores (Parkinsonian patients; 15 Parkinsonian patients, treated for up to 12 weeks): significant improvements
- patients who reported moderate or marked subjective improvement (Parkinsonian patients; of 15 Parkinsonian patients, treated for up to 12 weeks): 11
- serum theophylline levels (Parkinsonian patients; slow release oral theophylline preparation, after one week, Parkinsonian patients): 4.44 mg/L
